Data: US11873298B2, “Compounds and uses thereof” (JANSSEN PHARMACEUTICA NV, priority 2017, dated 2024)
Where “and” joins values, the source holds several entries; their conditions need not be identical. Equal entries are not always repeated.

What was measured:
Format in all cases: cell-based
Ole1 = biological target: T1, Ole1 (Saccharomyces cerevisiae, UniProt P21147); test: Growth inhibition of yeast strain expressing Ole1 as sole desaturase; settings: yeast strain expressing Ole1 as sole desaturase
T1 construct: expressed in transfected cells; host or cells: S. cerevisiae ole1Δ strain (W303 pdr1Δ pdr3Δ background), plasmid pRS316 with TDH3 promoter and CYC1 terminator
T1 sequence (P21147 1-510): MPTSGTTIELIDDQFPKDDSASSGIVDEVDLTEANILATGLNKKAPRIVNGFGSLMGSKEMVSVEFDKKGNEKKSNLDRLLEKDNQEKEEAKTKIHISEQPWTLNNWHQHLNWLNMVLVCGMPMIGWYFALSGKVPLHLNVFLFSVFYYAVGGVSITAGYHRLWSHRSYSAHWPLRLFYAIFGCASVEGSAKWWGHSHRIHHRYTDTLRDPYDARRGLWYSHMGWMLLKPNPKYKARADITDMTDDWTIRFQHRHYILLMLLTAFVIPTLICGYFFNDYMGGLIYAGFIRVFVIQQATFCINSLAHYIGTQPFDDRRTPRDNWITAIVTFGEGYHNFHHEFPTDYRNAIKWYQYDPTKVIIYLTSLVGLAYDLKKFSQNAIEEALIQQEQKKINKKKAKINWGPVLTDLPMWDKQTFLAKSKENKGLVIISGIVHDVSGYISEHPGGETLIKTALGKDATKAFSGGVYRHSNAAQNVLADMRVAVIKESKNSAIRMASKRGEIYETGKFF
Method in brief: (§1)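 Measured by optical density at 600 nm, growth of desaturase-dependent yeast (OLE1 deleted; human SCD1, human SCD5 or yeast Ole1 supplied from plasmid) was scored after 24 h (Ole1) or 40 h (SCD1, SCD5) at 30° C. in galactose media lacking uracil with DMSO-delivered compound.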

SCD5 = biological target: T2, SCD5 (Homo sapiens, UniProt Q86SK9); test: Growth inhibition of humanized yeast strain expressing SCD5 as sole desaturase; settings: humanized yeast strain expressing SCD5
T2 construct: host or cells: S. cerevisiae ole1Δ strain (W303 pdr1Δ pdr3Δ background), plasmid pRS316 with TDH3 promoter and CYC1 terminator
T2 sequence (Q86SK9 1-330): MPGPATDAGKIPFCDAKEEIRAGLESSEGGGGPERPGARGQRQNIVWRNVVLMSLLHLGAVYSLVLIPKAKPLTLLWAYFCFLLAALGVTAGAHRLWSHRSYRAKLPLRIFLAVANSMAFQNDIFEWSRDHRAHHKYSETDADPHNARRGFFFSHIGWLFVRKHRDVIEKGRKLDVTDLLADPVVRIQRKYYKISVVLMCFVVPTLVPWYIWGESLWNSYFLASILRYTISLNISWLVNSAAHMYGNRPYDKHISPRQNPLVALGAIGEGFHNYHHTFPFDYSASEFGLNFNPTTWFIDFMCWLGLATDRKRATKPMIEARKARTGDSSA
Method in brief: as §1

SCD1 = biological target: T3, SCD1 (Homo sapiens, UniProt O00767); test: Growth inhibition of humanized yeast strain expressing SCD1 as sole desaturase; settings: humanized yeast strain expressing SCD1
T3 construct: host or cells: S. cerevisiae ole1Δ strain (W303 pdr1Δ pdr3Δ background), plasmid pRS316 with TDH3 promoter and CYC1 terminator
T3 sequence (O00767 1-359): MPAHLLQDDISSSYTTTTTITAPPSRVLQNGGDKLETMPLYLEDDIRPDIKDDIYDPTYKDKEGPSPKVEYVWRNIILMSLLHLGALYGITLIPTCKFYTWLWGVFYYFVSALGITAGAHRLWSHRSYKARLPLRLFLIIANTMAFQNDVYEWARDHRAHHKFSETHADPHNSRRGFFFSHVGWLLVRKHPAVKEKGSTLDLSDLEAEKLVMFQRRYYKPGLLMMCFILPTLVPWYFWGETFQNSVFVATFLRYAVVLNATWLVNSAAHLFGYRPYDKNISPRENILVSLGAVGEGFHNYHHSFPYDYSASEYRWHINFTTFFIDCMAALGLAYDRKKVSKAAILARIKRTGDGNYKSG
Method in brief: as §1

Row | SMILES | IC50 (Ole1) [µM] | OLE1 % Max Inhibition (Ole1) | IC50 (SCD5) [µM] | SCD5 % Max Inhibition (SCD5) | IC50 (SCD1) [µM] | SCD1 % Max Inhibition (SCD1)
1 | N#CCC1CN(c2noc(C3CCN(C(=O)C4CC(=O)N(c5ccccc5)C4)CC3)n2)C1 (centres unmarked) [Compound 242] | > 45 | 95.59% | > 45 | 79.22% | > 45 | 101.23%
2 | Cn1ncc2c1CN(c1noc(C3CCN(C(=O)C4CC(=O)N(c5ccccc5)C4)CC3)n1)CC2 (centres unmarked) [Compound 243] | > 45 | 94.60% | > 45 | 72.11% | > 45 | 94.50%
3 | Cc1nn(C)c2cc(-c3noc(C4CCN(C(=O)CNC(=O)c5ccccc5)CC4(F)F)n3)ccc12 (centres unmarked) [Compound 244] | > 45 | 3.34% and 1.29% | > 45 | 2.85% and 2.47% | > 45 | 15.54% and 8.51%
4 | Cc1nn(C)c2cc(-c3noc(C4CCN(C(=O)C5CC(=O)N(CC6CC6)C5)CC4)n3)ccc12 (centres unmarked) [Compound 245] | > 45 | 95.26% | > 45 | 66.96% | > 45 | 77.70%
5 | Cc1nn(C)c2cc(-c3noc(N4CCN(C(=O)[C@H]5CC(=O)N(c6ccccc6)C5)CC4)n3)cnc12 [Compound 246] | > 45 | 13.06% | > 45 | 66.03% | – | 77.22%
6 | N#Cc1ccc(-c2noc(C3CCN(C(=O)[C@H]4CC(=O)N(c5ccccc5)C4)CC3)n2)s1 [Compound 247] | > 45 | 98.49% | > 45 | 72.46% | – | 79.89%
7 | O=C([C@H]1CC(=O)N(c2ccccc2)C1)N1CCC(c2nc(-c3ccc(Br)s3)no2)CC1 [Compound 248] | > 45 | 73.12% | > 45 | 13.59% | – | 3.09%
8 | COc1cc(-c2noc(C3CCN(C(=O)CNC(=O)c4ccccc4)CC3)n2)ccc1OC1CC1 [Compound 249] | > 45 | 88.69% | 41.7 | 61.88% | – | 80.12%
9 | Cc1nn(C)c2cc(-c3nsc(C4CCN(C(=O)CNC(=O)c5ccccc5)CC4)n3)ccc12 [Compound 250] | > 45 | 4.41% | > 45 | 14.48% | – | 86.09%
10 | Cc1nn(C)c2cc(-c3nsc(C4CCN(C(=O)C5CC(=O)N(c6ccccc6)C5)CC4)n3)ccc12 (centres unmarked) [Compound 251] | > 45 | 7.80% | > 45 | 20.59% | > 45 | 83.15%
11 | CNC(=O)c1ccc(-c2noc(C3CCN(C(=O)[C@H]4CC(=O)N(c5ccccc5)C4)CC3)n2)cn1 [Compound 252] | > 45 | 27.85% | > 45 | 39.69% | – | 80.73%
12 | COc1cc(-c2noc(C3CCN(C(=O)CNC(=O)c4ccccc4)CC3)n2)ccc1OC(F)(F)F [Compound 253] | > 45 | 106.42% | > 45 | 63.11% | – | 62.07%
13 | CC(C)(C#N)C1CN(c2noc(C3CCN(C(=O)C4CC(=O)N(c5ccccc5)C4)CC3)n2)C1 (centres unmarked) [Compound 254] | > 45 | 92.77% | > 45 | 83.13% | > 45 | 69.80%
14 | Cc1nn(C)c2cc(-c3noc(C4CCN(C(=O)C5CC(=O)N(CC6COC6)C5)CC4)n3)ccc12 (centres unmarked) [Compound 255] | > 45 | 96.25% | 30 | 64.50% | > 45 | 72.70%
15 | Cn1c(=O)n(C)c2cc(-c3noc(C4CCN(C(=O)[C@H]5CC(=O)N(c6ccccn6)C5)CC4)n3)ccc21 [Compound 256] | > 45 | 4.16% | > 45 | 72.11% | – | 76.04%
16 | Cc1nn(C)c2cc(-c3noc(N4CCN(C(=O)c5ccccc5)CC4)n3)ccc12 [Compound 261] | > 45 | 94.41% | > 45 | 82.31% | – | 73.42%
17 | Cc1nn(C)c2cc(-c3noc(N4CCN(C(=O)c5ccccc5Cl)CC4)n3)ccc12 [Compound 262] | > 45 | 23.99% | > 45 | 10.38% | – | 41.84%
18 | Cc1nn(C)c2cc(-c3noc(C4CCN(C(=O)CC(C)(C)C)CC4)n3)ccc12 [Compound 263] | > 45 | 8.71% | > 45 | 7.20% | – | 18.81%
19 | Cc1nn(C)c2cc(-c3noc(C4CCN(C(=O)CC5CC5)CC4)n3)ccc12 [Compound 264] | > 45 | 15.52% | > 45 | 7.97% | 40.8 | 56.37%
20 | CC(C)n1ncc2ccc(-c3noc(C4CCN(C(=O)OC(C)(C)C)CC4)n3)cc21 [Compound 265] | > 45 | 103.04% and 83.99% | > 45 | 10.96% and 3.97% | ≥ 45 | 76.74% and 54.38%
21 | Cc1nn(C)c2cc(-c3noc(C4CCN(C(=O)COc5ccccc5)CC4)n3)ccc12 [Compound 266] | > 45 | 7.17% | > 45 | 9.90% | – | 12.42%
22 | Cc1nn(C)c2cc(-c3noc(C4CCN(C(=O)CNC(=O)c5ccc(C#N)cc5)CC4)n3)ccc12 [Compound 267] | > 45 | 4.64% | > 45 | 11.33% | 37.8 | 58.58%
23 | Cc1nn(C)c2cc(-c3noc(C4CCN(C(=O)CNC(=O)c5cccc(C#N)c5)CC4)n3)ccc12 [Compound 268] | > 45 | 4.39% and 0.14% | > 45 | 8.68% and 2.67% | ≥ 45 | 79.03% and 65%
24 | Cc1nn(C)c2cc(-c3noc(C4CCN(C(=O)CNC(=O)c5ccc(Cl)cc5)CC4)n3)ccc12 [Compound 269] | > 45 | 6.62% and 4.57% | > 45 | 8.38% and 5.30% | – | 38.78% and 25.11%
25 | Cc1nn(C)c2cc(-c3noc(N4CCN(C(=O)c5cccc(F)c5)CC4)n3)ccc12 [Compound 270] | 41.8 | 63.00% | > 45 | 12.30% | – | 82.42%
26 | Cc1nn(C)c2cc(-c3noc(C4CCN(C(=O)CNC(=O)c5ccccc5C(F)(F)F)CC4)n3)ccc12 [Compound 271] | > 45 | 11.7% | > 45 | 53.6% | – | 67.9%
27 | Cc1nn(C)c2cc(-c3noc(C4CCN(C(=O)Oc5ccccc5)CC4)n3)ccc12 [Compound 272] | > 45 | 40.3% | > 45 | 51.9% | – | 70.8%
